Measurements published in US20240269238A1, “Therapeutic Regimens and Methods for Reducing Body Weight in a Subject with Fatty Liver Disease using a GLP-1R and GCGR Agonist” (Spitfire Pharma LLC, priority 2022, published 2024).

Legend:
[1] = test system: alanine aminotransferase (ALT); assay: Phase 1 12-week NAFLD study (Example 1): serum ALT; assay type: in vivo, human; conditions: for ALT reduction: week 12; for decline in serum ALT levels: subjects with baseline serum ALT above 30 IU/L, 12 weeks
From the text: (§1) Provided herein is disclosure of a Phase 1, multicenter, randomized, double-blind, placebo-controlled study to assess the effects of Pemvidutide (also termed herein as ALT-801), the safety of Pemvidutide and effects on hepatic fat fraction, anthropometric parameters, lipid metabolism, inflammatory markers and fibrosis markers in diabetic and non-diabetic (type 2 diabetes) overweight and obese (BMI 28.0 kg/m^2) subjects with NAFLD. This study was designed to assess changes in hepatic fat fraction by MRI-PDFF (magnetic resonance imaging-proton density fat fraction) in diabetic and non-diabetic overweight and obese subjects with NAFLD after 12 weeks of ALT-801 treatment. The trial was conducted without adjunctive diet and exercise interventions. The study assessed changes in body weight, lipid metabolism, metabolic markers, and inflammatory markers and safety and tolerability of ALT-801 after 12 weeks of treatment. Subjects were stratified for the presence or absence of diabetes at baseline. Fibroscan and cT1 assessments evaluated changes in liver inflammatory and fibrotic activity at the end of 12 weeks of treatment.
(§2) The study, described in this example, was carried out in 94 subjects overweight and obese (body mass index [BMI] ≥28.0 kg/m^2) Type 2 diabetic and non-diabetic subjects with nonalcoholic fatty liver disease (NAFLD) over about 4.5 months, including up to a 35-day screening period, and 85-day treatment period and a 25-day follow-up period, with treatment with ALT-801 (a composition comprising SEQ ID NO.: 1, “study medication”) or placebo administered by subcutaneous (SC) injection once weekly for up to twelve (12) doses.
The safety objective of this study was to assess the safety and tolerability of ALT-801 in 18-65 years old subjects with NAFLD (NAFLD without significant fibrosis, defined as FibroScan® controlled attenuation parameter (CAP) ≥280 dB/m and liver stiffness measurement (LSM)<10 kPa (i.e., indicating the absence of significant fibrosis), magnetic resonance imaging derived proton density fat fraction (MRI-PDFF) ≥10%), hemoglobin Alc (HbAlc) of less than 9.5%, and alanine aminotransferase (ALT) or aspartate aminotransferase (AST) values of ≤[…]. The pharmacodynamic (PD) objectives of this study were to evaluate the effects of ALT-801 on hepatic fat fraction, anthropometric parameters, lipid metabolism, metabolic markers, inflammatory markers, fibrosis markers, and lipotoxicity markers. The pharmacokinetic (PK) objectives of this study were to evaluate the effects of ALT-801 and metformin exposure (drug interactions) on the subjects (e.g., ALT-801 and metformin concentrations in blood over time).
After providing informed consent, subjects underwent a screening period of up to 35 days. Subjects were instructed on how to maintain their normal diets, alcohol consumption and physical activities and not to start any new diets, supplements, or exercise programs at any time while participating in the study. Counseling was provided on diet and exercise on the Day 1 visit and reinforced at subsequent visits. Study subjects were randomized 1:1:1:1 to one of the following treatment arms: 1) ALT-8011.2 mg SC once weekly for 12 weeks; 2) ALT-8011.8 mg SC once weekly for 12 weeks; 3) ALT-801 0.6 mg SC at week 1, 1.2 mg SC at week 2, 1.8 mg SC once weekly for 2 weeks (weeks 3 and 4), and 2.4 mg SC once weekly for weeks 5 through 12; or, 4) placebo SC once weekly for 12 weeks. Subjects were stratified by presence or absence of diabetes at baseline. Subjects in the treatment arm with a final therapeutic dose of 2.4 mg underwent a rapid 4-week dose escalation to improve tolerability and reduce the possibility of adverse events. […] See FIG. 7, second 2.4 mg column as compared to the first 2.4 mg column (this study). See WO 2022/125598. […]

[2] = test system: Iron-corrected T1 (cT1); assay: Phase 1 12-week NAFLD study (Example 1): iron-corrected T1 (cT1) responder analysis; assay type: in vivo, human; conditions: week 12
From the text: as §1, §2
After providing informed consent, subjects underwent a screening period of up to 35 days. Subjects were instructed on how to maintain their normal diets, alcohol consumption and physical activities and not to start any new diets, supplements, or exercise programs at any time while participating in the study. […]

CC[C@H](C)[C@H](NC(=O)[C@H](Cc1ccccc1)NC(=O)[C@H](CCC(=O)O)NC(=O)[C@@H]1CCCCNC(=O)CC[C@H](NC(=O)[C@H](CC(=O)O)NC(=O)[C@H](CC(C)C)NC(=O)[C@H](Cc2ccc(O)cc2)NC(=O)[C@H](CCCCN)NC(=O)[C@H](CO)NC(=O)[C@H](Cc2ccc(O)cc2)NC(=O)[C@H](CC(=O)O)NC(=O)[C@H](CO)NC(=O)[C@@H](NC(=O)[C@H](Cc2ccccc2)NC(=O)[C@@H](NC(=O)CNC(=O)[C@H](CCC(N)=O)NC(=O)C(C)(C)NC(=O)[C@@H](N)Cc2c[nH]cn2)[C@@H](C)O)[C@H](C)O)C(=O)N[C@@H](CCCCNC(=O)C2O[C@@H](OCCCCCCCCCCCCCCCCCC(=O)O)C(O)C(O)[C@@H]2O)C(=O)N[C@@H](C)C(=O)N[C@@H](C)C(=O)N1)C(=O)N[C@@H](CCC(N)=O)C(=O)N[C@@H](Cc1c[nH]c2ccccc12)C(=O)N[C@@H](CC(C)C)C(=O)N[C@@H](CC(C)C)C(=O)N[C@@H](CCC(N)=O)C(=O)N[C@H](C(N)=O)[C@@H](C)O (some centres unmarked) [ALT-801, Pemvidutide]
ALT reduction ([1]; all subjects, 1.2 mg): −11.2%
ALT reduction ([1]; all subjects, 1.8 mg): −13.8%
ALT reduction ([1]; all subjects, 'the 1.8 mg dose' as printed (second mention)): −13.6%
ALT reduction ([1]; subjects with baseline ALT >=30 IU/L, 1.2 mg): −17.8%
ALT reduction ([1]; subjects with baseline ALT >=30 IU/L, 1.8 mg): −20.8%
ALT reduction ([1]; subjects with baseline ALT >=30 IU/L, 2.4 mg): −27%
decline in serum ALT levels ([1]; 2.4 mg dose cohort): 27.0 IU/L
decline in serum ALT levels ([1]; all dose levels): more than 17 IU/L
proportion of subjects showing >=80 ms for Iron-corrected T1 (cT1) ([2]; 1.2 mg): 87.5%
proportion of subjects showing >=80 ms for Iron-corrected T1 (cT1) ([2]; 1.8 mg): 83.3%
proportion of subjects showing >=80 ms for Iron-corrected T1 (cT1) ([2]; 2.4 mg): 85.7%
